Data reported in patent publication US20240165180A1, “Processes for Extracting Muscimol from Amanita Muscaria” (priority 2021, published 2024).

Experiment: Heat exposure of muscimol during distillation
Assay type: physicochemical
Conditions: after being exposed to heat for 3 hours (distillation)
Method: In one example, distillation is performed for about 0.5 hours to about 6 hours. In some embodiments, distillation is performed for about 5 to about 6 hours. In another example, it is performed for about 2 to about 3 hours. In another example, it is performed for about 3 hours. […] However, in some embodiments, further distillation beyond 3 hours, such as 4 hours, 5 hours, 6 hours, or more than 6 hours, may be advantageous. In some embodiments, the resulting muscimol extract is a liquid.
The refluxed extract was then distilled for a period of 3 hours. Samples were taken prior to distillation, after 1 hour, 2 hours, and at 3 hours of distillation, as discussed further below. After distillation, the filtrate was cooled to 3° C. in a refrigerator. After about 3 hours of cooling, there was coagulated material suspended in the filtrate. The coagulated material in the filtrate was removed via vacuum filtration through the vacuum filtration setup described above (without the cheesecloth). After filtration, the filter setup was rinsed under vacuum with 30 mL of distilled water into the filtrate.

Compound: NCc1cc(=O)[nH]o1 [muscimol, 5-(Aminomethyl)-1,2-oxazol-3(2H)-one]
- stability to heat: begins degrading (to a very minimal degree)
